Measurements published in paper PMC12814167, “Optimizing Stability in Dynamic Small-Molecule Binding Proteins” (Journal of the American Chemical Society, 2025).
Like-named read-outs stand apart in the source and are kept apart here.

What was measured:
[1] = biological target: LAO.1; assay: Isothermal titration calorimetry of the purified protein with its cognate ligand at 25 °C in SEC running buffer (25 mM sodium phosphate, 500 mM NaCl, pH 7.4), fitted with a one-site binding model.; conditions: SD, n = 3
Protocol: (§1) Ligands were dissolved in the specific buffer that was used in the size-exclusion chromatography (SEC) run of each protein purification (stored at −20 °C and thawed on the day of use). All protein and ligand samples were degassed and the temperature equilibrated to 25 °C for at least 10 min using a degassing station (TA Instruments). 400 μL of protein samples was loaded into the sample cell of a low volume AffinityITC machine with gold cell (TA Instruments) and ligand solutions were added into the injection syringe (protein and ligand concentrations can be found in Table S5). ITC measurements were performed at 25 °C with 20 injections of 2.5 μL (one initial injection of 0.5 μL was excluded from analysis), an adaptive injection interval, and stirring rate of 125 rpm. Subtractions of constant heat of dilution values for each ligand, peak integration, and fitting with a one-site binding model were done with NanoAnalyze (TA Instruments). The reported errors reflect the standard deviation of three technical replicas.

[2] = biological target: LAO.3; assay: as above; conditions: SD, n = 3
Protocol: as §1

[3] = biological target: T1, LAO.0 (Salmonella enterica, UniProt P02911); assay: as above; conditions: SD, n = 3
T1 construct: gene argT
Protocol: as §1

[4] = biological target: LAO.4; assay: as above; conditions: SD, n = 3
Protocol: as §1

[5] = biological target: LAO.2; assay: as above; conditions: SD, n = 3
Protocol: as §1

[6] = biological target: PotF.3 (Escherichia coli, UniProt P31133, A339P/E108N/E331D/F129Y/F266Y/K202N/N154D/S178A/S252A/S265A/T94S/V186I); assay: as above; conditions: SD, n = 3
Chain of PotF.3 (P31133 27-370 T94S/E108N/F129Y/N154D/S178A/V186I/K202N/S252A/S265A/F266Y/E331D/A339P): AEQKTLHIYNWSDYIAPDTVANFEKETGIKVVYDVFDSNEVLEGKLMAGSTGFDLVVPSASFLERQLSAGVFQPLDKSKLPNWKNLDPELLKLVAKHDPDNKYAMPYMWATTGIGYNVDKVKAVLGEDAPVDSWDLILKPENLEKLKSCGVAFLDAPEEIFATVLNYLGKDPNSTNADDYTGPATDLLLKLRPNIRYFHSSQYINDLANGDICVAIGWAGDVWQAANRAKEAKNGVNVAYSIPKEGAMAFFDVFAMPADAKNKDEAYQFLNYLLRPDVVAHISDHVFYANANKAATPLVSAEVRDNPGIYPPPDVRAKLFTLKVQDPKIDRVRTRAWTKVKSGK
Protocol: as §1

[7] = biological target: PotF.1 (Escherichia coli, UniProt P31133, A203P/A327P/A339P/E108N/E331D/F129Y/F266Y/F313Y/K122Q/K202N/M131I/N154D/S178A/S252A/S265A/S267T/S326N/T322L/V186I/V264I/V305M/V46I); assay: as above; conditions: SD, n = 3
Chain of PotF.1 (P31133 other isoform, or with tags, fused parts or gaps with the stated changes): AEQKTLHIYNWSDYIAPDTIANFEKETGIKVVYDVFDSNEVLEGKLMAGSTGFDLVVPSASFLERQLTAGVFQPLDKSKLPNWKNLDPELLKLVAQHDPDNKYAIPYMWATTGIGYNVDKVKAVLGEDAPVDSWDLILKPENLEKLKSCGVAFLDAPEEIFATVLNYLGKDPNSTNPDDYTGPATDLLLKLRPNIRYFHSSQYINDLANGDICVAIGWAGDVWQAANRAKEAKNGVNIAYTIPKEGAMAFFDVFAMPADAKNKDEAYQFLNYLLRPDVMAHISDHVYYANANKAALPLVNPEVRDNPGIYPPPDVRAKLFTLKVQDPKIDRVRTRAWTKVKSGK
Protocol: as §1

[8] = biological target: PotF.0 (Escherichia coli, UniProt P31133); assay: as above; conditions: SD, n = 3
Protocol: as §1

[9] = biological target: PotF.4; conditions: SD, n = 3
Protocol: as §1

[10] = biological target: PotF.2; conditions: SD, n = 3
Protocol: as §1

[11] = biological target: TphC.1; assay: Isothermal titration calorimetry of the purified protein with its cognate ligand at 25 °C in SEC running buffer (25 mM sodium phosphate, 500 mM NaCl, pH 7.4), fitted with a one-site binding model.; conditions: SD, n = 3
Protocol: as §1

[12] = biological target: TphC.4; assay: as above; conditions: SD, n = 3
Protocol: as §1

[13] = biological target: TphC.3; assay: as above; conditions: SD, n = 3
Protocol: as §1

[14] = biological target: TphC.0; assay: as above; conditions: SD, n = 3
Protocol: as §1

[15] = biological target: TphC.2; assay: as above; conditions: SD, n = 3
Protocol: as §1

[16] = biological target: MBP.1; assay: as above; conditions: SD, n = 3
Protocol: as §1

[17] = biological target: MBP.2; assay: as above; conditions: n = 3
Protocol: as §1

[18] = biological target: MBP.4; assay: as above; conditions: SD, n = 3
Protocol: as §1

[19] = biological target: MBP.3; assay: as above; conditions: SD, n = 3
Protocol: as §1

[20] = parameters: method as in previously published binding constants; conditions: wild type LAO; ref previously published binding constants; read-out: binding constant; cited from earlier work
[21] = Isothermal titration calorimetry, LAO variants with L-lysine; type: binding; conditions: ITC, 25 °C
Description: buffer-lysine 1 - 3 - 300
Supporting Table 5. Protein and ligand concentrations for ITC measurements

[22] = CD thermal melt (Tmelt) of apo protein; type: physicochemical; conditions: CD at 222 nm, 20 to 95 °C, 1 °C/min, apo protein 0.2 mg/mL, pH 7.4, error from fit uncertainty
Protocol: To remove salts, protein samples were dialyzed overnight against 2 L of CD buffer (25 mM NaH2PO4/Na2HPO4, pH 7.4) using a 10 kDa molecular weight cutoff. Aggregated protein was removed by centrifugation at 15 000g for 5 min using a tabletop centrifuge (Eppendorf 5427R). Next, the protein concentration was adjusted to 0.3 mg/mL and verified photometrically. 200 μL of protein samples were mixed with either 100 μL of CD buffer or 100 μL of ligand solution (300 μM stocks of ligand solubilized in CD buffer) to reach a final concentration of 100 μM for the ligands and 0.2 mg/mL for the protein. CD spectra and thermal melt experiments were obtained on a JASCO J-1500 instrument using a glass cuvette with a 1 mm path length. For CD spectra, the following settings were used: wavelengths 240–190 nm, bandwidth 1 nm, response time 2 s, data pitch 0.1 nm, scanning speed 100 nm/min, and ten accumulations (for buffer controls only one accumulation was used). For Tmelt measurements, the following settings were used: wavelength of 222 nm, temperature range from 20 to 95 °C controlled by a Pelletier AWC100 (Julabo) using a slope of 1 °C/min, a bandwidth of 1 nm, and a response time of 2 s. Raw CD data were normalized by subtraction of the respective buffer data and subsequent conversion of the measured signal in millidegree to mean residue molar ellipticity. To obtain the apparent melting temperature T m, thermal melt data were fit using a sigmoidal equation according to Niklasson et al. The error plotted stems from the fit function uncertainty.

[23] = Isothermal titration calorimetry, PotF variants with putrescine; type: binding; conditions: ITC, 25 °C
Description: Protein Design ID Experimental Protein Ligand target repeat concentration concentration (µM) […]

[24] = parameters: method as in previously published binding constants; conditions: wild type PotF; ref previously published binding constants; read-out: binding constant; cited from earlier work

Molecule: NCCCC[C@H](N)C(=O)O [L-lysine]
- Kd [1]: 2500 ± 211 nM
- Kd [2]: 824 ± 18 nM
- Kd [3]: 93 ± 35 nM
- Kd [4]: 150 ± 21 nM
- Kd [5]: 612 ± 56 nM

Molecule: NCCCCN [putrescine]
- Kd [6]: 101 ± 17 nM
- Kd [7]: 479 ± 12 nM
- Kd [8]: 42 ± 3 nM
- Kd [9]: 103 ± 10 nM
- Kd [10]: 42 ± 12 nM

Molecule: O=C(O)c1ccc(C(=O)O)cc1 [terephthalic acid]
- Kd [11]: 5750 ± 709 nM
- Kd [12]: 282 ± 39 nM
- Kd [13]: 716 ± 91 nM
- Kd [14]: 1180 ± 250 nM
- Kd [15]: 627 ± 69 nM

Molecule: maltose
- Kd [16]: 1310 ± 293 nM
- Kd [17]: < 10000 nM
- Kd [18]: 2960 ± 675 nM
- Kd [19]: 450 ± 44 nM

B1: LAO.0: wild type L-lysine/L-arginine/L-ornithine binding protein LAO, Salmonella typhimurium, used as control (protein, UniProt P02911 23-260, looked up)
Lysine/arginine/ornithine-bind …: ALPQTVRIGTDTTYAPFSSKDAKGEFIGFDIDLGNEMCKRMQVKCTWVASDFDALIPSLKAKKIDAIISSLSITDKRQQEIAFSDKLYAADSRLIAAKGSPIQPTLESLKGKHVGVLQGSTQEAYANDNWRTKGVDVVAYANQDLIYSDLTAGRLDAALQDEVAASEGFLKQPAGKEYAFAGPSVKDKKYFGDGTGVGLRKDDTELKAAFDKALTELRQDGTYDKMAKKYFDFNVYGD
- Kd [20]: 232 ± 106 nM
- -TΔS [21]: 3.56 ± 0.382 kcal/mol
- ΔG [21]: -9.61 ± 0.22 kcal/mol
- ΔH [21]: -13.2 ± 0.22 kcal/mol
- apparent T m [22]: 47 ± 0.1 °C
- apparent T m ([22]; listed as LAO): 47 °C

B2: PotF.0: wild type putrescine-binding protein PotF, Escherichia coli (strain K12), used as control (protein, UniProt P31133 27-370, looked up)
Putrescine-binding …: AEQKTLHIYNWSDYIAPDTVANFEKETGIKVVYDVFDSNEVLEGKLMAGSTGFDLVVPSASFLERQLTAGVFQPLDKSKLPEWKNLDPELLKLVAKHDPDNKFAMPYMWATTGIGYNVDKVKAVLGENAPVDSWDLILKPENLEKLKSCGVSFLDAPEEVFATVLNYLGKDPNSTKADDYTGPATDLLLKLRPNIRYFHSSQYINDLANGDICVAIGWAGDVWQASNRAKEAKNGVNVSFSIPKEGAMAFFDVFAMPADAKNKDEAYQFLNYLLRPDVVAHISDHVFYANANKAATPLVSAEVRENPGIYPPADVRAKLFTLKVQDPKIDRVRTRAWTKVKSGK
- -TΔS [23]: 11.2 ± 0.287 kcal/mol
- ΔG [23]: -10.1 ± 0.048 kcal/mol
- ΔH [23]: -21.2 ± 0.263 kcal/mol
- Kd [24]: 68 ± 40 nM
- apparent T m [22]: 63 ± 0.4 °C
- apparent T m ([22]; listed as PotF): 63 °C
